Results published in EPA's ToxValDB 9.5.
Several values for one entry are separate records, joined by “and”; a condition that tells them apart may be missing. Equal values may be shown once. One block for each molecule: values may come before it.

Assays:
Mus musculus [1] = conditions: repeat dose other; oral
Rattus norvegicus [2] = conditions: acute
Oryctolagus sp. [3] = conditions: duration: 14 days, oral, gavage, New Zealand
Rattus norvegicus [4] = conditions: oral; for LOAEL / NOAEL: Crl: CD BR
Rattus norvegicus [5] = conditions: for LEL: uterotrophic, Active
Mus musculus [6] = conditions: uterotrophic, Active
Canidae [7] = conditions: oral
Rattus norvegicus [8] = conditions: Wistar; for LOAEL: subchronic
Oryctolagus sp. [9] = conditions: subchronic, inhalation
Rattus norvegicus [10] = system: Rattus norvegicus
Cavia porcellus = conditions: acute; inhalation; Guinea Pig
Mus musculus [11] = conditions: acute
Canidae [12] = conditions: chronic; oral; diet; M/F; Dog Other; methemoglobin and sulfhemoglobin formation
Rattus norvegicus [13] = conditions: chronic; duration: 2 years; oral; Increased methaemoglobin and sulfhaemoglobin levels
Rattus norvegicus [14] = conditions: subchronic, oral, drinking water, Fischer 344, Deaths + Clinical Observation: Emaciation Diarrhea Abnormal posture Tremors + Body Weight Changes: decrease + Water Consumption: decrease + …
[15] = developmental, M/F, generation: F1, F1: Developmental: Uterus: Dead Fetuses + F1: Developmental: Uterus: Fetuses, Live + F1: Developmental: Whole Body: Body Weight, Fetal + F1…
[16] = reproduction developmental, F, generation: P0, P0: Developmental: Uterus: Abortions + P0: Developmental: Uterus: Implantation + P0: Developmental: Uterus: Resorptions, Early + P0: …
[17] = reproduction developmental, F, generation: P0, P0: Uterus: Abortions
[18] = reproduction developmental, F, generation: P0, P0: Whole Body: Maternal Body Weight Change
[19] = developmental, duration: 11 days, gavage, M/F, generation: F1, F1: Developmental: Uterus: Dead Fetuses + F1: Developmental: Uterus: Fetuses, Live + F1: Developmental: Whole Body: Body Weight, Fetal + F1…
[20] = developmental, duration: 11 days, gavage, M/F, Crl:CD(SD) BR, generation: F1, F1: Whole Body: Body Weight, Fetal
[21] = reproduction developmental, duration: 11 days, gavage, F, generation: P0, P0: Developmental: Uterus: Implantation + P0: Developmental: Uterus: Resorptions, Early + P0: Developmental: Uterus: Resorptions, Late + P0…
[22] = duration: 7 days, injection, subcutaneous
[23] = duration: 3 days, injection, intraperitoneal
[24] = reproduction developmental, oral, drinking water, M/F, neurodevelopmental effects
[25] = subchronic, duration: 3 months, gavage, M/F, Beagle, Mydriasis
[26] = duration: 36 days, injection, subcutaneous
[27] = M/F, New Zealand, reduced testes weight, seminiferous tubule degeneration and reduced hemoglobin
[28] = chronic, duration: 1 years, gavage, M/F, Beagle, Mydriasis and focal neuronal degeneration

Compound: CCCCCCOC(=O)c1ccccc1C(=O)OCCCCCC [Dihexyl phthalate]
- LOAEL (Mus musculus [1]): 550 mg/kg-day
- NOAEL (Mus musculus [1]): 55 mg/kg-day
- LD50 (Rattus norvegicus [2]; oral): 38.9 mg/kg and 29.6 mg/kg

- NEL (Oryctolagus sp. [3]; reproduction developmental, F, generation: P0, P0: Ovary: Corpora Lutea + P0: Uterus: Implantation + P0: Uterus: Resorptions, Early + P0: Uterus: Resorptions, Late + P0: Whole Body: …): 3.75 mg/kg-day
- LEL (Oryctolagus sp. [3]; [17]): 3.75 mg/kg-day
- NEL (Oryctolagus sp. [3]; [17]): 2.5 mg/kg-day
- NEL (Rattus norvegicus [4]; developmental, duration: 11 days, gavage, M/F, Crl:CD(SD) BR, generation: F1, F1: Uterus: Fetuses, Dead + F1: Uterus: Fetuses, Live + F1: Whole Body: Fetal Alterations Count, External Malformations + F1: Whole Body: …): 20 mg/kg-day
- NEL (Rattus norvegicus [4]; reproduction developmental, duration: 11 days, gavage, F, Crl:CD(SD) BR, generation: P0, P0: Ovary: Corpora Lutea + P0: Uterus: Implantation + P0: Uterus: Resorptions, Early + P0: Uterus: Resorptions, Late + P0: Whole Body: …): 20 mg/kg-day
- NEL (Rattus norvegicus [4]; short-term, duration: 3 weeks, F, Sprague-Dawley, Kidney: Kidney Weight, Absolute + Kidney: Kidney Weight, Relative + Liver: Acyl-CoA Oxidase Activity, Liver + Liver: Catalase (CAT) Activity…): 5 mg/kg-day
- LEL (Rattus norvegicus [4]; short-term, duration: 3 weeks, F, Sprague-Dawley, Liver: Copper Zinc Superoxide Dismutase (CuZnSOD) Activity, Lver + Liver: Liver Weight, Relative + Liver: Manganese Superoxide Dismutase (…): 5 mg/kg-day
Compound: CCN(CCO)S(=O)(=O)C(F)(F)C(F)(F)C(F)(F)C(F)(F)C(F)(F)C(F)(F)C(F)(F)C(F)(F)F [N-Ethyl-N-(2-hydroxyethyl)perfluorooctane sulfonamide]
- LOAEL (Oryctolagus sp. [3]; [15]): 2.5 mg/kg-day
- NOAEL (Oryctolagus sp. [3]; [15]): 1 mg/kg-day
- NEL (Oryctolagus sp. [3]; developmental, M/F, generation: F1, F1: Uterus: Fetuses, Dead + F1: Uterus: Fetuses, Live + F1: Whole Body: Body Weight, Fetal + F1: Whole Body: Fetal Alterations Count, …): 3.75 mg/kg-day
- LOAEL (Oryctolagus sp. [3]; [16]): 2.5 mg/kg-day
- NOAEL (Oryctolagus sp. [3]; [16]): 1 mg/kg-day
- NOAEL (Oryctolagus sp. [3]; reproduction developmental, F, generation: P0, P0: Reproductive: Ovary: Corpora Lutea): 3.75 mg/kg-day
- LEL (Oryctolagus sp. [3]; [18]): 2.5 mg/kg-day
- NEL (Oryctolagus sp. [3]; [18]): 1 mg/kg-day
- LOAEL (Rattus norvegicus [4]; [19]): 10 mg/kg-day
- NOAEL (Rattus norvegicus [4]; [19]): 5 mg/kg-day
- LEL (Rattus norvegicus [4]; [20]): 10 mg/kg-day
- NEL (Rattus norvegicus [4]; [20]): 5 mg/kg-day
- LOAEL (Rattus norvegicus [4]; [21]): 10 mg/kg-day
- NOAEL (Rattus norvegicus [4]; [21]): 5 mg/kg-day
- NOAEL (Rattus norvegicus [4]; reproduction developmental, duration: 11 days, gavage, F, generation: P0, P0: Reproductive: Ovary: Corpora Lutea): 20 mg/kg-day

Compound: Clc1ccc(C(c2ccccc2Cl)C(Cl)(Cl)Cl)cc1 (centres undefined) [o,p'-DDT]
- LEL (Rattus norvegicus [5]; duration: 0.25 days, injection, subcutaneous): 10 mg/day
- LEL (Rattus norvegicus [5]; duration: 1 days, oral): 300 mg/kg-day
- LEL (Rattus norvegicus [5]; duration: 2 days, injection, intraperitoneal): 4 mg
- LEL (Rattus norvegicus [5]; duration: 2 days, injection, subcutaneous): 4 mg
- LEL (Rattus norvegicus [5]; duration: 3 days, oral, diet): 250 ppm
- LEL (Rattus norvegicus [5]; duration: 7 days, injection, intraperitoneal): 10 mg/day
- LEL (Rattus norvegicus [5]; [22]): 50 mg/kg-day and 100 mg/kg-day
- LEL (Rattus norvegicus [5]; duration: 7 days, oral): 50 mg/kg-day
- LEL (Rattus norvegicus [5]; duration: 7 days, oral, diet): 500 ppm
- LEL (Rattus norvegicus [5]; duration: 8 days, oral, diet): 500 ppm
- LEL (Rattus norvegicus [5]; duration: 27 days, injection, intraperitoneal): 0.5 mg/day
- LEL (Mus musculus [6]; duration: 1 days, oral): 375 mg/kg-day and 300 mg/kg-day
- LEL (Mus musculus [6]; duration: 3 days, oral): 30 mg/kg-day

Compound: CO[C@H]1C[C@H](O[C@H]2[C@H](C)O[C@@H](O[C@@H]3/C(C)=C/C[C@@H]4C[C@@H](C[C@]5(C=C[C@H](C)[C@@H](C6CCCCC6)O5)O4)OC(=O)[C@@H]4C=C(C)[C@@H](O)[C@H]5OC/C(=C\C=C\[C@@H]3C)[C@]54O)C[C@@H]2OC)O[C@@H](C)[C@@H]1O [Doramectin]
- LOEL (Canidae [7]; duration: 3 months, gavage, M/F, Beagle, Mydriasis): 0.3 mg/kg-day
- NOEL (Canidae [7]; subchronic, duration: 3 months, gavage, M/F, Dog Other, Mydriasis): 0.1 mg/kg-day

- LEL (Mus musculus [6]; [22]): 3 mg/kg-day
Compound: COC(=O)[C@H]1[C@H]2C[C@@H]3c4[nH]c5cc(OC)ccc5c4CCN3C[C@H]2C[C@@H](OC(=O)c2cc(OC)c(OC)c(OC)c2)[C@@H]1OC [Reserpine]

Compound: ClC1C(Cl)C(Cl)C(Cl)C(Cl)C1Cl (stereo not drawn) [beta-Hexachlorocyclohexane]
- NOAEL (Rattus norvegicus [8]; short-term, duration: 2 weeks, oral, diet, M/F, neurological): 8 mg/kg-day
- LOAEL (Rattus norvegicus [8]; duration: 13 weeks, oral, diet, M/F, hepatic): 0.18 mg/kg-day
- LEL (Rattus norvegicus [5]; duration: 3 days, oral): 3 mg/kg-day
- LEL (Mus musculus [6]; [23]): 100 mg/kg-day

- LEL (Rattus norvegicus [5]; duration: 14 days, injection, subcutaneous): 2 mg/day
- LEL (Rattus norvegicus [5]; duration: 14 days, oral): 0.1 mg/day
- LEL (Mus musculus [6]; duration: 3 days, oral): 0.1 mg/day
Compound: C#C[C@]1(O)CC[C@H]2[C@@H]3CCC4=CC(=O)CC[C@@H]4[C@H]3CC[C@@]21C [Norethindrone]
- NOEL (Rattus norvegicus [5]; Hershberger, duration: 10 days, oral, gavage, Sprague-Dawley, active + negative + Negative + neither): 10 mg/kg-day

Compound: CC(=O)[O-].CC(=O)[O-].[O]=[U+2]=[O] [Uranyl acetate]
- LOAEL (Mus musculus [1]): 6.13 mg/kg-day
- NOAEL (Mus musculus [1]): 3.07 mg/kg-day

Compound: CC(=O)NCC(=O)O.CC(=O)NCC(=O)O.N=C(N)c1ccc(N=NNc2ccc(C(=N)N)cc2)cc1 [Diminazene diaceturate]
- LOEL (Canidae [7]; chronic, duration: 9 months, capsule, M/F, Beagle, Decreased bodyweights, mortality, prostatic malfunction, foci of softening in the brainstem, & testicular atrophy): 60 mg/kg-day
- LOEL (Canidae [7]; duration: 9 months, capsule, M/F, Beagle, Decreased bodyweights, mortality, prostatic malfunction, foci of softening in the brainstem, & testicular atrophy): 60 mg/kg-day

Compound: [O][Cl+][O-] [Chlorine dioxide]
- LOAEL (Rattus norvegicus [8]; duration: 2 months, inhalation, unknown, respiratory): 2.76 mg/m3
- LOAEL (Oryctolagus sp. [9]; duration: 45 days, Hemorrhagic alveoli and congested capillaries the lungs): 6.9 mg/m3
- LOAEL (Rattus norvegicus [10]; [24]): 6 mg/kg-day
- NOAEL (Rattus norvegicus [10]; [24]): 3 mg/kg-day
- LOAEL (Rattus norvegicus [10]; subchronic, duration: 60 days, inhalation, vascular congestion and peribronchial edema): 2.76 mg/m3

Compound: CCCCCCCCCc1ccc(O)cc1 [4-Nonylphenol]
- LEL (Rattus norvegicus [5]; duration: 1 days, injection, subcutaneous): 200 mg/kg-day and 600 mg/kg-day
- LEL (Rattus norvegicus [5]; [23]): 100 mg/kg-day
- LEL (Rattus norvegicus [5]; duration: 5 days, oral): 100 mg/kg-day
- LEL (Rattus norvegicus [5]; duration: 7 days, oral): 120 mg/kg-day
- LEL (Rattus norvegicus [5]; duration: 11 days, oral): 150 mg/kg-day
- LEL (Mus musculus [6]; duration: 0.17 days, injection, subcutaneous): 0.022 mg

Compound: N#CCCSCCC#N [3,3'-Thiodipropionitrile]
- LC50 (Cavia porcellus): > 88.9 mg/m3
- LC50 (Rattus norvegicus [2]; inhalation): > 88.9 mg/m3
- LC50 (Mus musculus [11]; inhalation): > 88.9 mg/m3
- LD50 (Mus musculus [11]; oral, gavage, albino): 3750 mg/kg

Compound: Cc1ccc2c(=O)c3cccc(CC(=O)O)c3oc2c1C [5,6-Dimethylxanthenone-4-acetic acid]
- LOEL (Canidae [7]; [25]): 0.3 mg/kg-day
- NOEL (Canidae [7]; [25]): 0.1 mg/kg-day

Compound: C=C1C[C@]23C[C@@]1(O)CC[C@H]2[C@@]12C=C[C@H](O)[C@@](C)(C(=O)O1)[C@H]2[C@@H]3C(=O)O [Gibberellic acid]
- LEL (Mus musculus [6]; duration: 5 days, injection, subcutaneous): 0.0001 mg/day

Compound: O=C(NC(=O)c1c(F)cccc1F)Nc1ccc(Cl)cc1 [Diflubenzuron]
- LEL (Canidae [12]): 10 mg/kg-day
- NOEL (Canidae [12]): 2 mg/kg-day
- NOAEL (Canidae [7]; chronic, duration: 1 years, Dog Other, Increased methaemoglobin and sulfhaemoglobin levels, platelet counts and hepatic pigmentation): 2 mg/kg-day
- NOAEL (Rattus norvegicus [13]): 2 mg/kg-day

- LEL (Rattus norvegicus [5]; [26]): 3 mg and 1 mg/day
- LEL (Mus musculus [6]; [26]): 2 mg and 1 mg/day
Compound: CC(=O)O[C@]1(C(C)=O)CC[C@H]2[C@@H]3C=C(Cl)C4=CC(=O)[C@@H]5C[C@@H]5[C@]4(C)[C@H]3CC[C@@]21C [Cyproterone acetate]
- LOEL (Rattus norvegicus [5]; Hershberger, duration: 10 days, oral, gavage, Wistar, active + Negative + Antiandrogenic + anti-androgenic): 0.4 mg/kg-day

Compound: CCOCCO [2-Ethoxyethanol]
- NOEL (Rattus norvegicus [14]; F): 122 mg/kg-day
- NOEL (Rattus norvegicus [14]; M/F): < 190 mg/kg-day
- LOAEL (Oryctolagus sp. [9]; [27]): 1480 mg/m3
- NOAEL (Oryctolagus sp. [9]; [27]): 380 mg/m3

Compound: CO[C@H]1C[C@H](O[C@@H]2/C(C)=C\C[C@@H]3C[C@@H](C[C@]4(C=C[C@H](C)[C@@H](C(C)C)O4)O3)OC(=O)[C@@H]3C=C(C)[C@@H](O)[C@H]4OC/C(=C/C=C\[C@@H]2C)[C@]43O)O[C@@H](C)[C@H]1O[C@H]1C[C@@H](OC)[C@H](NC(C)=O)[C@H](C)O1 [Eprinomectin]
- LOAEL (Canidae [7]; [28]): 2 mg/kg-day
- NOEL (Canidae [7]; [28]): 1 mg/kg-day
